# Measured values taken from patent publication US7351729B2, “JNK inhibitors for use in combination therapy for treating or managing proliferative disorders and cancers” (Signal Pharmaceuticals, LLC, priority 2002, dated 2008).
# Experiments:
# MiaPaCa cells = test: MiaPaCa cell apoptosis, DiOC6 staining and flow cytometry; assay type: cell-based; conditions: taxol for first 7 hours, washed out, then JNK inhibitor A; read at 48 hours; compared to taxol alone
# Experimental: The following experiment was performed to determine the effectiveness of combination treatment with JNK inhibitor A and a chemodrug on apoptosis. The results are illustrated in FIG. 3.
# MiaPaCa cells (100,000/well) were plated in 6 well plates. Following overnight incubation, vehicle or taxol was added alone for the first 7 hours, washed out, and then JNK inhibitor A or vehicle were added for the remainder of the experiment. After 48 hours, each sample was trypsinized, stained with DiOC6 and analyzed by flow cytometry on a Coulter Epics flow cytometer using FlowJo software.
# [1] = tested on: Lewis Lung Carcinoma (LLC) cells; test: Lewis Lung Carcinoma (LLC) proliferation in vitro, Alamar Blue fluorescence; assay type: cell-based; conditions: combination with a chemodrug (doxorubican, 5-FU, cisplatin or paclitaxel), 48 hours after treatment, relative to JNK inhibitor or chemodrug alone
# Experimental: This experiment was performed in vitro to determine the effect on Lewis Lung Carcinoma (LLC) proliferation of combination treatment with JNK inhibitor A and JNK inhibitor B (JNK inhibitor A=((2H-Dibenzo(cd,g)indazol-6-one)); JNK inhibitor B=(3-(4-fluoro-phenyl)-5-(2H-(1,2,4-triazol-3-yl)-1H-indazole)) and anti-cancer agents. The results are illustrated in FIGS. 1A and 1B.
# LLC cells were grown in DMEM with 10% FBS. Cells were subsequently treated on the second day with either DMSO,JNK inhibitor A (3 μM, 10 μM or 30 μM), JNK inhibitor B (1 μM, 3 μM, or 10 μM), or a chemodrug (i.e., doxorubican, […] (5-FU), cisplatin or paclitaxel) (concentrations ranging from 0.001 μM to 10 μM) or a combination of JNK inhibitor A or JNK inhibitor B with a chemodrug. Cell proliferation was measured at 48 hours after treatment by Alamar Blue fluorescence.
# Lewis lung carcinoma = test: LLC tumor growth in mice, JNK inhibitor A with cyclophosphamide; assay type: in vivo, C57BL/6 mice; conditions: JNK inhibitor A in combination with cyclophosphamide; p=0.05; N=10
# Experimental: The following experiment was performed to determine the effectiveness of combination treatment with JNK inhibitor A and cyclophosphamide. The results are illustrated in FIG. 4.
# Tumor cells were cultured under normal conditions, harvested with trypsin, washed with PBS then resuspended, 1×10^7 cells/ml in Matrigel (Collaborative). C57BL/6 mice (female, 18-20 g, Charles River) were lightly anesthetized using Isofluorane then inoculated, subcutaneously, under the right flank with 0.1 ml Matrigel containing 1×10^6 tumor cells. Mice were randomized into treatment groups immediately after cell inoculation. After 3 days tumor growth treatment began. Mice were administered vehicle alone (DMSO), cyclophosphamide (CTX), JNK inhibitor A or CTX in combination with JNK inhibitor A. Tumor volumes were determined by caliper measurement. Tumor volume was calculated by the formula: mm^3=(L×W2)/2. Values are mean±sem, N=10.
# [2] = tested on: Lewis Lung Carcinoma (LLC) tumors; test: LLC tumor growth in mice, JNK inhibitor B with cyclophosphamide; assay type: in vivo, C57BL/6 mice; conditions: CTX (50 mg/kg, ip, q3d) in combination with JNK inhibitor B; 17 days; 10/group
# Experimental: This experiment was performed to determine if JNK inhibitors will enhance the antitumor effects of cyclophosphamide (CTX) in combination treatment. Results are illustrated in FIG. 2.
# Lewis Lung Carcinoma (LLC) tumors were injected into C57BL/6 mice (50 mice, 10/group), 1×10^6 cells in 0.1 ml Matrigel. Tumors were treated the day after inoculation by administration of vehicle alone (0.5% CMC/0.25% Tween 80), cyclophosphamide (CTX, 50 mg/kg, ip, q3d), SPC2 (75 mg/kg, ip, b.i.d.) or CTX in combination with JNK inhibitor B. Tumor volume was recorded over a period of 17 days. Tumor volume was calculated by the formula: mm^3=(L×W^2)/2. In the CTX/JNK inhibitor B combination group, 7/10 animals had no measurable tumors at the end of the study.
# [3] = tested on: HCT-116 human colorectal cancer cells; test: HCT-116 tumor growth in SCID mice, JNK inhibitor C with Camptosar; assay type: in vivo, CB17 SCID mice; conditions: JNK inhibitor C (15 mg/kg, i.p., b.i.d) + Camptosar (1.5 mg/kg, q4d)
# Experimental: The following experiment was performed to determine the effectiveness of combination treatment with JNK inhibitor C (JNK inhibitor C=(3-(4-(2-Piperidin-1-yl-ethoxy)-cyclohexa-1,5-dienyl)-5-(2H-(1,2,4)triazol-3-yl)-1H-indazole)) and Camptosar. The results are illustrated in FIG. 5.
# CB17 SCID mice were inoculated subcutaneously with HCT-116 human colorectal cancer cells. On day 8, mice bearing tumors of 100 mm^3 were segregated into groups and administered i.p. with vehicle (citrate buffer), JNK inhibitor C (15 mg/kg), JNK inhibitor C (30 mg/kg), JNK inhibitor C (15 mg/kg)+Camptosar (1.5 mg/kg), Camptosar (1.5 mg/kg) or Camptosar (10 mg/kg). The tumors were measured twice a week and volumes calculated. The dosing regimen for the compound JNK inhibitor C was b.i.d and for Camptosar was q4d. The arrows indicate the dosing days of JNK inhibitor C and Camptosar.
SMILES,chemotherapeutic induction of apoptosis (MiaPaCa cells),killing of cells (cell proliferation) [1],tumor inhibition (tumor volume) versus cyclophosphamide alone (Lewis lung carcinoma),animals with no measurable tumors at the end of the study [2],tumor growth versus either treatment alone [3]
"O=C1c2ccccc2-c2n[nH]c3cccc1c23 [JNK inhibitor A, 2H-Dibenzo(cd,g) indazol-6-one]",Potentiates Chemotherapeutic Induction of Apoptosis,increased killing of cells,significantly less,–,–
"Fc1ccc(-c2n[nH]c3ccc(-c4ncn[nH]4)cc23)cc1 [JNK inhibitor B, 3-(4-fluoro-phenyl)-5-(2H-(1,2,4)triazol-3-yl)-1H-indazole]",–,increased killing of cells,–,7/10,–
"C1=CC(OCCN2CCCCC2)CC=C1c1n[nH]c2ccc(-c3ncn[nH]3)cc12 (stereo not drawn) [JNK inhibitor C, 3-(4-(2-Piperidin-1-yl-ethoxy)-cyclohexa-1,5-dienyl)-5-(2H-(1,2,4)triazol-3-yl)-1H-indazole]",–,–,–,–,significantly slower
